Reference: US20050282743A1, “Molecular interactions in cells” (Arbor Vita Corporation, priority 2001, published 2005)
Peptide text beside a SMILES is read from it. * marks the point of attachment. Biotin = O=C1N[C@H]2[C@H](CS[C@H]2CCCCC(=O)*)N1

What was measured:
Test in all cases: G' assay (10 uM PL peptide), results of TABLE 7 and TABLE 12
Format in all cases: binding
[1] = target: T1, PDZ protein (GST-PDZ fusion) (Homo sapiens, UniProt Q12959)
T1 construct: made in house; host or cells: E. coli (DH5alpha, BL21 or JM109)
Outline: (§1)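 Biotinylated PL peptides at 10 uM (vs 20 uM in G^0 assay) bound to GST-PDZ fusions; PDZ protein at 5 ug/ml unless another concentration listed. Bound peptide read as A450 nm, classified 0–5 (0 = A450 0; 5 = A450 >4 repeated).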

[2] = target: T2, PDZ protein (GST-PDZ fusion) (Homo sapiens, UniProt O15018)
T2 construct: made in house; host or cells: E. coli (DH5alpha, BL21 or JM109)
Outline: as §1

[3] = target: T3, PDZ protein (GST-PDZ fusion) (Homo sapiens, UniProt Q15700); conditions: PDZ DLG2, PDZ Domain 2
T3 construct: made in house; host or cells: E. coli (DH5alpha, BL21 or JM109)
Outline: as §1

[4] = target: T4, PDZ protein (GST-PDZ fusion) (Homo sapiens, UniProt Q92796); conditions: PDZ NeDLG
T4 construct: made in house; host or cells: E. coli (DH5alpha, BL21 or JM109)
T4 sequence (Q92796 1-817): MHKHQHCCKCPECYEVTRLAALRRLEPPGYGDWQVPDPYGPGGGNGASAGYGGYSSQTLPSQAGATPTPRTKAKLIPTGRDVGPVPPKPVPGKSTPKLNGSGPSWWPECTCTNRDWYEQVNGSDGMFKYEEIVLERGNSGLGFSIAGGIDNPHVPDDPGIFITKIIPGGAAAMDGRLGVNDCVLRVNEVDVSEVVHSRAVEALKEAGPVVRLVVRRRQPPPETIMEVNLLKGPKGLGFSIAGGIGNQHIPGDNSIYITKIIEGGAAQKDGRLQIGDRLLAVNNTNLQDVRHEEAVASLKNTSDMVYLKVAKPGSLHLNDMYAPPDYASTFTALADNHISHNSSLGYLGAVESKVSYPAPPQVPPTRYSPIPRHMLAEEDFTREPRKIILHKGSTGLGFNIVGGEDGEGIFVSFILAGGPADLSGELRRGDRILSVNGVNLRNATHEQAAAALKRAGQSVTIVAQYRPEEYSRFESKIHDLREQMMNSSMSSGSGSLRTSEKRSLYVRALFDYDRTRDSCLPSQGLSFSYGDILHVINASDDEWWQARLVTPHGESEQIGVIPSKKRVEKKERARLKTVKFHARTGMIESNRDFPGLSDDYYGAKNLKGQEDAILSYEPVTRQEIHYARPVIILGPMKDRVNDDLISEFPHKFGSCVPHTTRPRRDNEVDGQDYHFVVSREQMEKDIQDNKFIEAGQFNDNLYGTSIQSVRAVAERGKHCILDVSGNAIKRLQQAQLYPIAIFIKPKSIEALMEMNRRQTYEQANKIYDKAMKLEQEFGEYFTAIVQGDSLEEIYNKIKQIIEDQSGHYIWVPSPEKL
Outline: as §1

[5] = target: T5, PDZ protein (GST-PDZ fusion) (Homo sapiens, UniProt P78352)
T5 construct: made in house; host or cells: E. coli (DH5alpha, BL21 or JM109)
Outline: as §1

[6] = target: T6, PDZ protein (GST-PDZ fusion) (Homo sapiens, UniProt Q86UL8); conditions: PDZ atrophin-1 interacting Protein
T6 construct: made in house; host or cells: E. coli (DH5alpha, BL21 or JM109)
Outline: as §1

[7] = target: T7, PDZ protein (GST-PDZ fusion) (Homo sapiens, UniProt Q8NI35); conditions: PDZ INADL, PDZ Domain 8; PL peptide 10 uM
T7 construct: made in house; host or cells: E. coli (DH5alpha, BL21 or JM109)
Outline: as §1

T5 sequence (P78352 whole entry, the tested form may be a part): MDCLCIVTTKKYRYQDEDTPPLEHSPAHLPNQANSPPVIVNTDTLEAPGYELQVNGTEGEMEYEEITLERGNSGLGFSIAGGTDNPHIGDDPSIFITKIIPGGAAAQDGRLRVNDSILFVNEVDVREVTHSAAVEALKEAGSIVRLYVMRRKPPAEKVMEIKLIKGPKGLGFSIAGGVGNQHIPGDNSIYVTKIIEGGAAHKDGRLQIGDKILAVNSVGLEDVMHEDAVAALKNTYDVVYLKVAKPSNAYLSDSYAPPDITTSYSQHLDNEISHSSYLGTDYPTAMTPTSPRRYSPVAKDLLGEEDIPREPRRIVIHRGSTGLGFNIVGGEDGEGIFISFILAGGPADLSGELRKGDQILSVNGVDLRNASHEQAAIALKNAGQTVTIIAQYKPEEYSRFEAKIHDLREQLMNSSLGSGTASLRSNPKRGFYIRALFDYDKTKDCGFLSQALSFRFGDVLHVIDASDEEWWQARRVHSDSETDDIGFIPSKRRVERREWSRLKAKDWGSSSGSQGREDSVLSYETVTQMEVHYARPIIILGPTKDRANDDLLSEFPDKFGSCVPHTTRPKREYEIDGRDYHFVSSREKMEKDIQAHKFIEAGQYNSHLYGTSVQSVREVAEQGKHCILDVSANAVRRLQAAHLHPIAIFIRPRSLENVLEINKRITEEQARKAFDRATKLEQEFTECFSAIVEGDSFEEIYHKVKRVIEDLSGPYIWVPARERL
T3 sequence (Q15700 whole entry, the tested form may be a part): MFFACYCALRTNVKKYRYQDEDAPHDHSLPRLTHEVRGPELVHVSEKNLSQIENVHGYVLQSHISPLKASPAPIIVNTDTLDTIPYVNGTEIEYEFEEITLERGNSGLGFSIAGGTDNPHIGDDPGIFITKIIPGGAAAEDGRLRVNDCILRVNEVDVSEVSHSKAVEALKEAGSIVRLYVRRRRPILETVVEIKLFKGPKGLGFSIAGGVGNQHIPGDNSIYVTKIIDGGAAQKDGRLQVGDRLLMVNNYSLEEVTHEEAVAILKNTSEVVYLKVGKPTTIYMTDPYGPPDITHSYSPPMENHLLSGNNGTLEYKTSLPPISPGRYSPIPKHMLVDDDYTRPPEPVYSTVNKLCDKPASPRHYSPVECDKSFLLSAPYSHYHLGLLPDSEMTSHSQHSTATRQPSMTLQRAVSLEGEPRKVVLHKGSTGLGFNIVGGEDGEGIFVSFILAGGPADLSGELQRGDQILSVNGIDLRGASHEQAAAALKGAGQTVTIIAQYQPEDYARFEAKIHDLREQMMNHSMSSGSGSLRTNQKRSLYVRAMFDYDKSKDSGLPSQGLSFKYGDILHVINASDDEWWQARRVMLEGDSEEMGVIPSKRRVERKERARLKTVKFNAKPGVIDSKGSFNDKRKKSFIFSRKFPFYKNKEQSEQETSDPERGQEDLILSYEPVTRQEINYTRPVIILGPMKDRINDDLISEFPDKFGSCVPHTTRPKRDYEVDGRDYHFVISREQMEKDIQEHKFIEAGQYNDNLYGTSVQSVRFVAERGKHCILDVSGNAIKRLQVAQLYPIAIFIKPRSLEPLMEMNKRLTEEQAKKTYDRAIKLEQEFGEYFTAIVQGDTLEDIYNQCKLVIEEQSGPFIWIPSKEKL
T1 sequence (Q12959 whole entry, the tested form may be a part): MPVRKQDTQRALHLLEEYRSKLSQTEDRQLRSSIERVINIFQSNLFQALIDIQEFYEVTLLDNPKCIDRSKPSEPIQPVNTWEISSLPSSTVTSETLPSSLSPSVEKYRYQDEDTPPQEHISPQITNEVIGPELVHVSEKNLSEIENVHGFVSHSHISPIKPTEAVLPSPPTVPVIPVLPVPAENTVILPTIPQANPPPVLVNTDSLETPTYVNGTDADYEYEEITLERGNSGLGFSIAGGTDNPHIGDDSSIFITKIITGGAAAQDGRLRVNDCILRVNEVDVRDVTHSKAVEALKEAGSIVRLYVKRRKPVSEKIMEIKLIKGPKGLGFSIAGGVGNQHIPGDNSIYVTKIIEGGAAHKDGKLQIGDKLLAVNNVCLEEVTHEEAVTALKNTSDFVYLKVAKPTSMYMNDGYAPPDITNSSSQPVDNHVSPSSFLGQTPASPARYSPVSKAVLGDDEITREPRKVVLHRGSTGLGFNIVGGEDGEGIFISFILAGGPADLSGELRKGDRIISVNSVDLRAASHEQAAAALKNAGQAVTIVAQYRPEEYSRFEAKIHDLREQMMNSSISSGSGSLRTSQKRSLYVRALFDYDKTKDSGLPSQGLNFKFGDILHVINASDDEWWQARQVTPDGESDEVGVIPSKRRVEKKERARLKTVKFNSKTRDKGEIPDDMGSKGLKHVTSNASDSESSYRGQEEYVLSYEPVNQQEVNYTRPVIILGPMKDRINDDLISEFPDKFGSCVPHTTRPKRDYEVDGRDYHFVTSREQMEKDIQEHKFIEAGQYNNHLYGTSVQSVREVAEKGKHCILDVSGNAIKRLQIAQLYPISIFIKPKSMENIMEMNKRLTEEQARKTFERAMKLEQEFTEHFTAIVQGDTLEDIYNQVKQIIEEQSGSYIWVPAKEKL
T6 sequence (Q86UL8 whole entry, the tested form may be a part): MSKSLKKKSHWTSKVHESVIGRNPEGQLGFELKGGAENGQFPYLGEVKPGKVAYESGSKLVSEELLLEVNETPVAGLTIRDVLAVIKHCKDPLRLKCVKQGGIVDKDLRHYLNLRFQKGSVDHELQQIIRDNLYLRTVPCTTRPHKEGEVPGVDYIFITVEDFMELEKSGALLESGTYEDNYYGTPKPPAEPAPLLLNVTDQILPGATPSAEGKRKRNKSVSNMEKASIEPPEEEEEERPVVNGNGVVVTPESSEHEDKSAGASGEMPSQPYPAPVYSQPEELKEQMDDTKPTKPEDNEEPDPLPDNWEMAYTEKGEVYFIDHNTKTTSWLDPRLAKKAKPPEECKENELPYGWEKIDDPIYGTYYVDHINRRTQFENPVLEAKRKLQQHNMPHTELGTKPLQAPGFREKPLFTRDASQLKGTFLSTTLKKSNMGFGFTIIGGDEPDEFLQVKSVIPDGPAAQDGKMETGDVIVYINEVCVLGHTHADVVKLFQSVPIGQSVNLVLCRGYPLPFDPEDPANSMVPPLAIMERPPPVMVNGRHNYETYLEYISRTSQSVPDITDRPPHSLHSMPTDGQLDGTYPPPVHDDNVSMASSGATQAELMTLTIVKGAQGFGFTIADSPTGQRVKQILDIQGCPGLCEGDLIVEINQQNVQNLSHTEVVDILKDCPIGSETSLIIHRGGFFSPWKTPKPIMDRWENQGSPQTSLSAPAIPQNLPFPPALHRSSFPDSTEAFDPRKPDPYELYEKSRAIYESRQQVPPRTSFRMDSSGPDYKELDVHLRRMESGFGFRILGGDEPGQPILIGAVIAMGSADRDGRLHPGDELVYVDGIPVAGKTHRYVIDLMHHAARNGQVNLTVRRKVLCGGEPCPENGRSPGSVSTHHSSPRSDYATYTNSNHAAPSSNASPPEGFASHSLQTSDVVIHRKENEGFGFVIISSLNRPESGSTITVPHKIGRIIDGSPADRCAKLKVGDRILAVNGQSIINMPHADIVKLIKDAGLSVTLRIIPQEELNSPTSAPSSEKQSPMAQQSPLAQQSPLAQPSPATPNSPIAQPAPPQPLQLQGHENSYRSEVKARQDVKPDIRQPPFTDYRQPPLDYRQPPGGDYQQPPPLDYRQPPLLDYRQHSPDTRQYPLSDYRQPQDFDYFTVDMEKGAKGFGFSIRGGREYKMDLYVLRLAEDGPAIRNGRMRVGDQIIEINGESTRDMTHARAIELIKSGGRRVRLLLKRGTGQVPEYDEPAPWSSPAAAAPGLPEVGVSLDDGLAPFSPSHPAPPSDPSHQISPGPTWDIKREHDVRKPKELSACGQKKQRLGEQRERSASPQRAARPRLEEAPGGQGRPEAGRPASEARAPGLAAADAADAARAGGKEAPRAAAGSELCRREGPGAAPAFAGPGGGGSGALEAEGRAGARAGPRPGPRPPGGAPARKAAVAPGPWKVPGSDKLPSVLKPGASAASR

| Classification ([1]; PDZ DLG1, PDZ Domain 2) | Classification ([2]; PDZ AIPC, PDZ Domain 1) | Classification [3] | Classification ([4]; PDZ Domain 1, 2) | Classification ([1]; PDZ DLG1, PDZ Domain 1, 2) | Classification ([5]; PDZ PSD95, PDZ Domain 1, 2, 3) | Classification ([6]; PDZ Domain 1) | Compound | Classification ([4]; PDZ Domain 1, 2, PL peptide 10 uM) | Classification ([4]; PDZ Domain 1, PL peptide 10 uM) | Classification ([4]; PDZ Domain 2, Protein Optimal Conc 5) | Classification ([1]; PDZ DLG1, PDZ Domain 1, 2, PL peptide 10 uM) | Classification ([1]; PDZ DLG1, PDZ Domain 1, Protein Optimal Conc 0.5) | Classification ([1]; PDZ DLG1, PDZ Domain 2, Protein Optimal Conc 0.3) | Classification ([2]; PDZ KIAA0300, PDZ Domain 1, PL peptide 10 uM) | Classification ([3]; Protein Optimal Conc 0.5) | Classification ([5]; PDZ PSD95, PDZ Domain 1, 2, 3, PL peptide 10 uM) | Classification ([5]; PDZ PSD95, PDZ Domain 1, Protein Optimal Conc 5) | Classification ([6]; PDZ Domain 1, Protein Optimal Conc 0.5) | Classification ([6]; PDZ Domain 3, Protein Optimal Conc 5) | Classification [7] |
| --- | --- | --- | --- | --- | --- | --- | --- | --- | --- | --- | --- | --- | --- | --- | --- | --- | --- | --- | --- | --- |
| 1 (A450 nm 0-1) | 1 (A450 nm 0-1) | 1 (A450 nm 0-1) | – | – | – | – | CC[C@H](C)[C@H](NC(=O)[C@H](CCC(=O)O)NC(=O)[C@H](CC(N)=O)NC(=O)[C@H](CCCNC(=N)N)NC(=O)[C@H](Cc1ccccc1)NC(=O)[C@H](CC(N)=O)NC(=O)[C@H](CO)NC(=O)[C@H](CC(N)=O)NC(=O)[C@H](CCC(=O)O)NC(=O)[C@H](CO)NC(=O)[C@H](CC(=O)O)NC(=O)[C@H](CO)NC(=O)[C@@H](NC(=O)[C@@H](NC(=O)[C@H](CC(=O)O)NC(=O)[C@H](CCCCN)NC(=O)CCCC[C@@H]1SC[C@@H]2NC(=O)N[C@@H]21)[C@@H](C)CC)[C@@H](C)O)C(=O)N[C@@H](CCC(N)=O)C(=O)N[C@@H](CO)C(=O)N[C@@H](CC(C)C)C(=O)N[C@H](C(=O)O)C(C)C [CD95] (Biotin-KDITSDSENSNFRNEIQSLV-OH; C-terminus assumed) | – | – | – | – | – | – | – | – | – | – | – | – | – |
| 1 (A450 nm 0-1) | – | 1 (A450 nm 0-1) | 1 (A450 nm 0-1) | 2 (A450 nm 1-2) | 2 (A450 nm 1-2) | 1 (A450 nm 0-1) | CC[C@H](C)[C@H](NC(=O)[C@H](CCC(=O)O)NC(=O)[C@H](CO)NC(=O)[C@H](CCC(=O)O)NC(=O)[C@H](CCCNC(=N)N)NC(=O)[C@H](CCCNC(=N)N)NC(=O)[C@H](CC(C)C)NC(=O)[C@@H]1CCCN1C(=O)[C@H](CCCNC(=N)N)NC(=O)[C@@H]1CCCN1C(=O)[C@H](CCC(=O)O)NC(=O)[C@H](CC(C)C)NC(=O)[C@@H]1CCCN1C(=O)[C@@H](NC(=O)[C@H](CO)NC(=O)[C@H](C)NC(=O)[C@H](CCC(N)=O)NC(=O)[C@H](CC(N)=O)NC(=O)[C@H](Cc1c[nH]cn1)NC(=O)[C@H](CC(C)C)NC(=O)CCCC[C@@H]1SC[C@@H]2NC(=O)N[C@@H]21)C(C)C)C(=O)O [Kir2.1 (inwardly rect. K+ channel)] (Biotin-LHNQASVPLEPRPLRRESEI-OH; C-terminus assumed) | – | – | – | – | – | – | – | – | – | – | – | – | – |
| – | – | – | – | – | – | – | CC[C@H](C)[C@H](NC(=O)[C@H](CCCCN)NC(=O)[C@@H](NC(=O)[C@H](CO)NC(=O)[C@@H]1CCCN1C(=O)[C@H](Cc1ccccc1)NC(=O)[C@@H](NC(=O)[C@@H](NC(=O)[C@H](CCCNC(=N)N)NC(=O)[C@H](CCC(=O)O)NC(=O)[C@H](CC(C)C)NC(=O)[C@H](CC(C)C)NC(=O)[C@H](CC(C)C)NC(=O)[C@@H](NC(=O)CNC(=O)[C@@H](NC(=O)CCCC[C@@H]1SC[C@@H]2NC(=O)N[C@@H]21)C(C)C)[C@@H](C)O)C(C)C)[C@@H](C)CC)C(C)C)C(=O)N[C@@H](C)C(=O)N[C@H](C(=O)N[C@@H](CC(C)C)C(=O)N[C@H](C(=O)O)C(C)C)[C@@H](C)O [Adenovirus E4 Type9] | 5 (A450 nm of 4 more than 2× repeated) | 1 (A450 nm 0-1) | 5 (A450 nm of 4 more than 2× repeated) | 5 (A450 nm of 4 more than 2× repeated) | 4 (A450 nm 3-4) | 5 (A450 nm of 4 more than 2× repeated) | 1 (A450 nm 0-1) | 5 (A450 nm of 4 more than 2× repeated) | 5 (A450 nm of 4 more than 2× repeated) | 4 (A450 nm 3-4) | 5 (A450 nm of 4 more than 2× repeated) | 4 (A450 nm 3-4) | 2 (A450 nm 1-2) |
